Experimental findings from patent US12421228B2 (Mirati Therapeutics, Inc., priority 2019, dated 2025) are described below.

The test system of assay [1] is Karpas 422 cells (EZH2 Y641N). The assay can be described thus: Karpas 422 cell viability (Cell Titre Glo). It is filed as cell-based. The settings on record: Homo sapiens, CTG viability, Day 4, Day 7 or Day 11 (time point not given), read-out: IC50 (nM), Inhibiting Proliferation of Cells Expressing an Activating Mutant Form of EZH2. How it is done:
Karpas 422 cell line is a human B cell non-Hodgkin's lymphoma cell line established from a patient having DLBCL. This EZH2 heterozygotic cell line expresses a mutant form of EZH2 enzyme (Y641N) that increases histone H3 methylation and this mutation has been implicated in the tumorgenesis of lymphomas, such as DLBCL.
Karpas 422 cells (PHE cat no., 06101702) were cultured in RPMI medium supplemented with 20% fetal bovine serum and 1% penicillin/1% streptomycin and plated at a density of 1000 cells/90 μl/well in 96 well white assay plates. A dose response curve for compounds of the present invention was determined by adding a 10 μl aliquot of stock solutions of varying concentrations of compounds to the same medium in each well, over a concentration range of 10 μM using 3-fold dilutions to a final concentration of 1.5 nM. The plates were incubated at 37° C. for predetermined time periods, Day 4, Day 7, or Day 11, and the viability of the cells was measured using a CTG assay kit (Cell Titre Glo; Promega cat. no G7573) on Day 4 and Day 7 in accordance with the manufacturer's instructions.
For the viability assay for the Day 11 plates, the plates were subjected to centrifugation at 1100 rpm for five minutes on Day 7 and the supernatant was removed by aspiration. The cells were resuspended in 90 μl aliquot of the appropriate growth medium lacking the compound followed by addition of 10 μl of a 10× stock of the same compound at the same concentration. The viability of the Day 11 cells was measured using the CTG assay kit described above in accordance with the manufacturer's instructions. The IC50 values for each compound at each predetermined time point were calculated using Graph pad PRISM software and the results are shown in Table 8. A=≤250 nM; B=[…]−≤500 nM; C=>500 nM and N.D.=not determined.

In assay [2] the target is purified human, His-tagged PRC2 complex (Homo sapiens (Human), UniProt O75530). The assay can be described thus: Hot Spot HMT assay, inhibition of PRC2 enzymatic activity. It is filed as biochemical. The settings on record: 10 nM PRC2 complex, 0.05 mg/ml core histone H3, 1 μM 3H-SAM, 1 hr at 30° C.; read-out: IC50, Inhibition of PRC2-mediated Enzymatic Activity. How it is done: Ten-point dose-response curves for compounds of the present invention were determined using a Hot Spot HMT assay (Reaction Biology Corp; see Horiuchi et al., Assay Drug Dev Technol. (2013) 4: 227-236 doi: 10.1089/adt.2012.480). The assay uses purified human, His-tagged PRC2 complex, including N-terminal His-tagged EZH2 enzyme, N-terminal Flag-tagged embryonic ectoderm development protein (EED), N-terminal His-tagged suppressor of zeste 12 (SUZ12), N-terminal His-tagged AEBP2, and N-terminal His-tagged RbAp48. In this assay, the transfer of the tritiated methyl group from radiolabeled S-adenosyl methionine (SAM) to purified core histone protein by EZH2 is quantitated after filtration to determine the activity of the core PRC2 complex in the presence and absence of compound.
Briefly, compounds of the present invention were solubilized in DMSO and a series of 10, three-fold serial dilutions were made for each compound in 15% DMSO. The initial starting concentration for the serial dilutions of each compound was 1.0 μM. Control samples lacking compound, EZH2 enzyme or various reaction components also were prepared and processed in parallel with compound test samples. SAH (S-(5-adenosyl)-L-homocysteine) was used as a positive control for assay validation.
An aliquot of each serial dilution of test compound was added to deep 384 well plate using Acoustic Technology instrument (Echo 550, LabCyte) containing reaction buffer (50 mM Tris-HCl (pH 8)), 0.01% Brij35, 1 mM EDTA, 1 mM DTT, 1 mM PMSF and 1% DMSO), 10 nM purified PRC2 complex and 0.05 mg/ml core histone H3 in a 5 μl volume. The reaction was mixed gently and then pre-incubated for 20 min at 30° C. The enzymatic reaction was initiated by adding 1 μM S-Adenosyl-L-[methyl-^3H]methionine and incubated for 1 hr at 30° C. After 1 hr, the reaction product was detected using a filter binding method and the amount of tritiated H3 core histone was quantitated using a scintillation counter. The IC50 value for each compound was determined from each 10-point dose-response curve using GraphPad Prism software and the results for compounds of present invention, including compounds of Formula (I) and Formula (II) are shown in Table 6. Key: A=<100 nM; B=>100 nM−<250 nM; and C=>250 nM.

For assay [3], the system named is PRC2-mediated histone H3 methylation in Pfeiffer cells (EZH2 A677G). As to the kind of experiment: Tri-Methyl Histone H3 (Lys 27) sandwich ELISA in Pfeiffer cells. It is filed as cell-based. As to conditions: Homo sapiens, 96 hours incubation, H3K27me3 ELISA, read-out: IC50 (nM), Inhibition of EZH2-mediated Histone H3 Trimethylation. An excerpt:
The Pfeiffer cell line was established from a […] from a patient having metastatic diffuse large B-cell lymphoma (DLBCL). This cell line expresses a mutant form of the EZH2 enzyme (A677G) that results in enhanced EZH2 activity leading to increased methylation of histone H3 Lys27. Increased trimethylation of histone H3 Lys27 is believed to be implicated in tumorgenesis and poor clinical prognosis in lymphomas (McCabe et al., (2012) Nature 492:108-112).
Inhibition of PRC2-mediated histone H3 methylation by compounds of Formula (I) was measured by ELISA using a Tri-Methyl Histone H3 (Lys 27) Sandwich ELISA Kit (Cell Signaling Tech #7866C) in accordance with the manufacturer's instructions. Briefly, Pfeiffer cells were cultured in RPMI medium supplemented with 10% fetal bovine serum and 1% penicillin and 1% streptomycin in 96 well culture plates at 37° C. to a density of 8000 cells/90 μl/well and the cells were harvested. A series of 3-fold serial dilutions of each test compound of Formula (I) were prepared in RPMI medium and added to the cells at final concentrations ranging from […] to 0.15 nM. The plates were incubated at 37° C. for 96 hours.
After incubation, the cells were pelleted by centrifugation in a pre-cooled 4° C. rotor at 1,100 rpm for 10 min and the supernatant was removed by aspiration. The cell pellet was resuspended in 55 μl of Lysis Buffer (0.4M HCl) and incubated on ice with periodic shaking for 30 minutes. The lysed cells were subjected to centrifugation at 4,200 rpm for 10 min at 4° C. and the supernatant containing acid-soluble proteins was collected and the remainder discarded. The acid-soluble proteins were brought to a neutral pH by the addition of 20 μl of Neutralization Buffer (1 M Sodium phosphate, dibasic (pH 12.5), 2.5 mM DTT and 1 mM PMSF) and the neutralized lysates were analyzed by ELISA.
A 65 μl aliquot of each cell lysate was added to a well of a microwell strip, the microwells were sealed using tape and incubated either at 37° C. for two hours or at 4° C. overnight. After incubation, the tape was removed at the microwells were washed four times using 200 μl of 1× Wash Buffer. To each washed microwell, a 100 μl aliquot of an anti-trimethyl histone H3 Lys27 Detection Antibody solution was added and the microwells were incubated at 37° C. for one hour. The Detection Antibody solution was removed by aspiration and the wells were washed four times each using 200 μl of 1× Wash Buffer.
A 100 μl aliquot of an HRP-linked secondary antibody was added to each well, the wells were sealed with tape and incubated at 37° C. for 30 min. The HRP-linked secondary antibody solution was removed by aspiration and the wells were washed four times using 200 μl of 1× Wash Buffer. A 100 μl aliquot of a TMB substrate was added to each well, the wells were sealed with tape and incubated at 37° C. for 10 min or 25° C. for 30 min. The reaction was stopped by the addition of 100 μl aliquot of a STOP solution and the plate was shaken briefly. The degree of histone H3 trimethylation was determined using a spectrophotometric readout by measuring the absorbance at 450 nm and then calculating the amount of trimethylated histone H3. A=≤100 nM; B=>100 nM−≤500 nM; C=>500 nM and N.D.=not determined.
(An ELISA detects its analyte on a solid surface through an enzyme-linked reagent.)

Sequence of purified human, His-tagged PRC2 complex (Q15910 whole entry): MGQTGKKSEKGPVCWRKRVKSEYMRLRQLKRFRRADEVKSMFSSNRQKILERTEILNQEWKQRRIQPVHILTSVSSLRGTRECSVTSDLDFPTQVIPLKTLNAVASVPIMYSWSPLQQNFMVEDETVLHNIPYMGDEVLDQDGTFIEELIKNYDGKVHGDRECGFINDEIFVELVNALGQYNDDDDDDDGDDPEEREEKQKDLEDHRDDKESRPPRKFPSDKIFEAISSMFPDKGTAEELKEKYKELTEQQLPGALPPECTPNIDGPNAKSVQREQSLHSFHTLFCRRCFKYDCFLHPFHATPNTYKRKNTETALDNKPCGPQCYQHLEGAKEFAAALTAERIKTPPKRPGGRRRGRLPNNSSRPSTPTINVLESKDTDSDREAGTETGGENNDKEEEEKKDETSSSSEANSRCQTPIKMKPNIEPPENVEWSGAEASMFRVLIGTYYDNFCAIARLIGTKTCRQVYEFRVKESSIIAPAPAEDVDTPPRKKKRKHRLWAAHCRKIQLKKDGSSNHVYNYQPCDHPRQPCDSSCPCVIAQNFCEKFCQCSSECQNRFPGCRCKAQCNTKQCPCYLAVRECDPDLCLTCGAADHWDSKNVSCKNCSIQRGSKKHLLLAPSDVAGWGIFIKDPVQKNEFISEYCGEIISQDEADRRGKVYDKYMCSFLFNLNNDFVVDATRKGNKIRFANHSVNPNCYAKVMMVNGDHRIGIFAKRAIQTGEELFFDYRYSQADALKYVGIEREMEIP
Sequence of purified human, His-tagged PRC2 complex (O75530 whole entry): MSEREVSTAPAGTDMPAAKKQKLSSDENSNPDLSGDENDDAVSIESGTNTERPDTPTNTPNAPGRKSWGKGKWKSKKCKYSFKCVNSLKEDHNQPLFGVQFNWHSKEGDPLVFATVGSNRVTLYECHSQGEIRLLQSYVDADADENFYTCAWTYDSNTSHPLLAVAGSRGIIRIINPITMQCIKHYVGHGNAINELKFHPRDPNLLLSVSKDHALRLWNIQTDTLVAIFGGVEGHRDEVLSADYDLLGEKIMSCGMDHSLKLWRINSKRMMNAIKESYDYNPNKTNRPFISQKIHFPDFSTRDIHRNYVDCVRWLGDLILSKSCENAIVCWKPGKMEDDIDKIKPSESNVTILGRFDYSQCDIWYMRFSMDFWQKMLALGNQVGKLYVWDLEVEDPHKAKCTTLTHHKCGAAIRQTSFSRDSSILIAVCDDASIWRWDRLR
Sequence of purified human, His-tagged PRC2 complex (Q15022 whole entry partner): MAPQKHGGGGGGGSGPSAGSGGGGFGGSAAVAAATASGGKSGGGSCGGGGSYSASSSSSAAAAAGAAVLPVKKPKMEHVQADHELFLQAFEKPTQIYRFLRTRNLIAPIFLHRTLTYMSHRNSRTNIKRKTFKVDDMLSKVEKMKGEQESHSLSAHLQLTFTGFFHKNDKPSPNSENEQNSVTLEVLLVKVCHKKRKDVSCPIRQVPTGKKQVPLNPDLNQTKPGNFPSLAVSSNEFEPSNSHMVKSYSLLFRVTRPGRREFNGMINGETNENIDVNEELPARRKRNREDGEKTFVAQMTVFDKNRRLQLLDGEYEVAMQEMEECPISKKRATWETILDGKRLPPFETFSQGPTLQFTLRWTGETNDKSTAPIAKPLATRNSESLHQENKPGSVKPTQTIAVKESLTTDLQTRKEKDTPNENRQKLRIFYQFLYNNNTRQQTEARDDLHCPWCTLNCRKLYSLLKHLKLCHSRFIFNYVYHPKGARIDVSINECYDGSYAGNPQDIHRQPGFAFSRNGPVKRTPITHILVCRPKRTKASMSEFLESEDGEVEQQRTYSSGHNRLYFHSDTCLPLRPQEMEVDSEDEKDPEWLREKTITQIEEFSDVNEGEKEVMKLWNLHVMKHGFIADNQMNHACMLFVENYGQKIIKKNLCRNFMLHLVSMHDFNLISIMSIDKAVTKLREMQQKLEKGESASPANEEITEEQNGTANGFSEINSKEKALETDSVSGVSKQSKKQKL
Sequence of purified human, His-tagged PRC2 complex (Q6ZN18 whole entry partner): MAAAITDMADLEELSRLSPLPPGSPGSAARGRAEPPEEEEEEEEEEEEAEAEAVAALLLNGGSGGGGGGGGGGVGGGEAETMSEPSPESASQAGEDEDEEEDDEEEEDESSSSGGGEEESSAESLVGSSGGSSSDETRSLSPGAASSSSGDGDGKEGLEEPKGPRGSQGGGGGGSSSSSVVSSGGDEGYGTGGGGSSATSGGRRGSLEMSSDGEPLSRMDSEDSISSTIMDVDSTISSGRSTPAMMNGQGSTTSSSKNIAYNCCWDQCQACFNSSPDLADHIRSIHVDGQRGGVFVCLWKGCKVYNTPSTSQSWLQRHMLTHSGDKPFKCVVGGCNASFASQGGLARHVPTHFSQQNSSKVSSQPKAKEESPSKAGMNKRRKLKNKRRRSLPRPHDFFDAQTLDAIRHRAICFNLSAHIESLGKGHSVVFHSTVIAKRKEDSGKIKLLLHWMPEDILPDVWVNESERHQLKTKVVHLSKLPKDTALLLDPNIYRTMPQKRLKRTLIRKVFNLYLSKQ
Sequence of purified human, His-tagged PRC2 complex (Q09028 whole entry partner): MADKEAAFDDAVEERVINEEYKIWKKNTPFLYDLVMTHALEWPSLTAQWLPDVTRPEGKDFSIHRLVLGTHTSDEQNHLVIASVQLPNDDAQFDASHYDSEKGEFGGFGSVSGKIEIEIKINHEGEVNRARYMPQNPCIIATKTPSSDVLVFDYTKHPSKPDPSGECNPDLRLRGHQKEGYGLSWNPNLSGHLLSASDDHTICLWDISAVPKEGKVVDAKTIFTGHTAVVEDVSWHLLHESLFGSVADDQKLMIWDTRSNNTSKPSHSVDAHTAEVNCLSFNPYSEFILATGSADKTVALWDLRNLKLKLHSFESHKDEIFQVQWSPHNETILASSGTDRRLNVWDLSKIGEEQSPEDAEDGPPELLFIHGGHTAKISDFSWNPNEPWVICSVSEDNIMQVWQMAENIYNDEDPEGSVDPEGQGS

Take `NS(=O)(=O)c1ccc(-c2cnc(NCc3c(F)ccc4c3CCO4)c3cnncc23)cc1` [Example 1]: the IC50 in assay [1] is at most 250 nM; in assay [2], under 100 nM; in assay [3], at most 100 nM.

In the case of `Fc1ccc2c(c1CNc1ncc(-c3ccc(CN4CCCC4)cc3)c3cnncc13)CCO2` [Example 2], the IC50 in assay [1] is at most 250 nM; in assay [2] it was under 100 nM; in assay [3], at most 100 nM.

Consider `Cc1cc(S(C)(=O)=O)ccc1-c1cnc(NCc2c(F)ccc3c2CCO3)c2cnncc12` [Example 3], for which the IC50 in assay [1] was at most 250 nM; in assay [2], under 100 nM; in assay [3], at most 100 nM.

For `Cc1cc(C(=O)N(C)C)ncc1-c1cnc(NCc2c(F)ccc3c2CCO3)c2cnncc12` [Example 4], the IC50 is at most 250 nM in assay [1], 100 to 250 nM in assay [2] and at most 100 nM in assay [3].

`Cc1c(-c2cnc(NCc3c(F)ccc4c3CCO4)c3cnncc23)ccc(CN(C)C)c1F` [Example 5]: the values for the IC50 in assay [1], in assay [2] and in assay [3] were at most 250 nM, over 250 nM and at most 100 nM, respectively.

In the case of `Cc1cc(CN(C)C)ccc1-c1cnc(NCc2c(F)ccc3c2CCO3)c2cnncc12` [Example 6], the IC50 in assay [1] was at most 250 nM; in assay [2], under 100 nM; in assay [3], at most 100 nM.

As to `CNS(=O)(=O)c1ccc(-c2cnc(NCc3c(F)ccc4c3CCO4)c3cnncc23)cc1` [Example 7], the figures for the IC50 in assay [1], in assay [2] and in assay [3] were at most 250 nM, under 100 nM and at most 100 nM, respectively.

For the molecule `CN(C)S(=O)(=O)c1ccc(-c2cnc(NCc3c(F)ccc4c3CCO4)c3cnncc23)cc1` [Example 8], the IC50 is at most 250 nM in assay [1], under 100 nM in assay [2] and at most 100 nM in assay [3].

With `CN(C)C(=O)c1ccc(-c2cnc(NCc3c(F)ccc4c3CCO4)c3cnncc23)cc1` [Example 9], the IC50 in assay [1] is at most 250 nM; in assay [2], 100 to 250 nM; in assay [3] it was at most 100 nM.

With `CN(C)S(=O)(=O)c1ccc(-c2cnc(NCc3c(F)ccc4c3CCO4)c3cnncc23)cn1` [Example 10], the IC50 in assay [1] was at most 250 nM; in assay [2] it was under 100 nM; in assay [3], at most 100 nM.

For `Cc1ncccc1-c1cnc(NCc2c(F)ccc3c2CCO3)c2cnncc12` [Example 11], the IC50 in assay [1] was at most 250 nM; in assay [2] it was under 100 nM; in assay [3], at most 100 nM.

For `Cc1cc(-c2cnc(NCc3c(F)ccc4c3CCO4)c3cnncc23)ccn1` [Example 12], the figures for the IC50 in assay [1], in assay [2] and in assay [3] were at most 250 nM, under 100 nM and at most 100 nM, respectively.

In the case of `Cc1cc(-c2cnc(NCc3c(F)ccc4c3CCO4)c3cnncc23)n(C)n1` [Example 13], the figures for the IC50 in assay [1], in assay [2] and in assay [3] were at most 250 nM, under 100 nM and at most 100 nM, respectively.

As to `CN(C)Cc1ccc(-c2cnc(NCc3c(F)ccc4c3CCO4)c3cnncc23)cc1F` [Example 14], the IC50 in assay [1] was at most 250 nM; in assay [2], under 100 nM; in assay [3], at most 100 nM.

For `CN(C)C(=O)c1cc(-c2cnc(NCc3c(F)ccc4c3CCO4)c3cnncc23)n(C)n1` [Example 15, 5-(5-(((5-fluoro-2,3-dihydrobenzofuran-4-yl)methyl)amino)pyrido[3,4-d]pyridazin-8-yl)-N,N,1-trimethyl-1H-pyrazole-3-carboxamide], the IC50 was at most 250 nM in assay [1], under 100 nM in assay [2] and at most 100 nM in assay [3].

`Cn1nc(C#N)cc1-c1cnc(NCc2c(F)ccc3c2CCO3)c2cnncc12` [Example 16, 5-(5-(((5-fluoro-2,3-dihydrobenzofuran-4-yl)methyl)amino)pyrido[3,4-d]pyridazin-8-yl)-1-methyl-1H-pyrazole-3-carbonitrile]: the IC50 in assay [1] is at most 250 nM; in assay [2], under 100 nM; in assay [3], at most 100 nM.

As for `CN1CCc2cc(-c3cnc(NCc4c(F)ccc5c4CCO5)c4cnncc34)ccc2C1` [Example 17, N-((5-fluoro-2,3-dihydrobenzofuran-4-yl)methyl)-8-(2-methyl-1,2,3,4-tetrahydroisoquinolin-6-yl)pyrido[3,4-d]pyridazin-5-amine], the IC50 in assay [1] was at most 250 nM; in assay [2], under 100 nM; in assay [3] it was at most 100 nM.

In the case of `CCOc1cc2c(-c3cc(C)nn3C)cnc(NCc3c(F)ccc4c3CCO4)c2cn1` [Example 42, 4-(1,3-dimethyl-1H-pyrazol-5-yl)-6-ethoxy-N-((5-fluoro-2,3-dihydrobenzofuran-4-yl)methyl)-2,7-naphthyridin-1-amine], the IC50 in assay [2] lay within 100 to 250 nM.
